Experimental data: patent publication US20100113550A1, “New Crystal Forms” (BIAL - PORTELA AND CA, S.A., priority 2006, published 2010)
“Also recorded” adds a separate entry of the source. Like-named read-outs stand apart in the source and are kept apart here.

Legend:
Assay type in all cases: physicochemical
[1] = RH stability: storage at controlled relative humidity or drying, checked by XRPD and for deliquescence
[2] = Approximate solubilities (solvent added until a solution forms); conditions: for solubility: read-out: Solubility (approximate)
From the text: Approximate solubilities of compound 1, Form A in aqueous mixtures containing high concentrations of organic solvents are given in Table 1. [table]

[3] = Interconversion studies of Forms A and C (slurries, XRPD); conditions: interconversion in ethanol and acetone:water 99:1
Protocol: A slurry of compound 1, Form A, was prepared in a given solvent and loaded on an orbit shaker at either ambient or elevated temperature for at least 1 day. The liquid phase of the slurry was drawn off with a pipette and filtered through a 0.2-μm filter. A slurry containing compound 1 forms A and C was prepared using the filtered liquid phase from the Form A slurry. The mixture was then loaded on an orbit shaker in a sealed vial at either ambient or elevated temperature for 1 or 7 days. The solids were isolated by vacuum filtration or by drawing the liquid phase off with a pipette and allowing the solids to air dry at ambient conditions prior to analysis. The resulting Forms were characterised by XRPD.

[4] = RH stability: storage at controlled relative humidity or drying, checked by XRPD and for deliquescence; conditions: high relative humidities, long periods of time
From the text: Form A samples were stored at lower relative humidities of approximately 9-11, 23 and 32% RH and analyzed by XRPD and Karl-Fischer titration analysis after four weeks (Tables 30 and 31). The samples appeared to be Form A by XRPD. […] Note that the water content in the samples at 23 and 32% RH was slightly higher compared to the initial batch of Form A.
Form X samples were stored at relative humidities of approximately 43, 75 and 90% RH and analyzed by XRPD and Karl-Fischer titration analysis after five weeks (Tables 34 and 35).

Cl.NCCc1c[nH]c(=S)n1[C@H]1COc2c(F)cc(F)cc2C1 [Form C, (R)-5-(2-Aminoethyl)-1-(6,8-difluorochroman-3-yl)-1,3-dihydroimidazole-2-thione hydrochloride]
Hygroscopicity [1]: non-hygroscopic
RH stability, XRPD result ([1]; 95% relative humidity, ~2 months): did not change
Deliquescence ([1]; approximately 65% relative humidity, one week): did not deliquesce
Deliquescence ([1]; approximately 90% relative humidity, 11 days): did not deliquesce
solubility ([2]; 1,4-dioxane, organic solvent or mixture, 1,4-dioxane): < 1 mg/mL
solubility ([2]; 1,4-dioxane:water 9:1, organic solvent or mixture, 1,4-dioxane:water 9:1): > 22 mg/mL
Solubility (approximate) ([2]; 1,4-dioxane:water 99:1, hydrochloride): <22 mg/mL
Solubility (approximate) ([2]; 2,2,2-trifluoroethanol, hydrochloride): 1.7 mg/mL
solubility ([2]; THF:water 9:1, organic solvent or mixture, THF:water 9:1): > 23 mg/mL
solubility ([2]; THF:water 99:1, organic solvent or mixture, THF:water 99:1): < 24 mg/mL
Solubility (approximate) ([2]; acetone:water 90:10 (9:1)): >23 mg/mL
Solubility (approximate) ([2]; acetone:water 99:1, hydrochloride): <24 mg/mL
Solubility (approximate) ([2]; acetone, hydrochloride): <1 mg/mL
solubility ([2]; acetonitrile, organic solvent or mixture, acetonitrile): < 1 mg/mL
solubility ([2]; acetonitrile:water 4:1, organic solvent or mixture, acetonitrile:water 4:1): > 40 mg/mL
Solubility (approximate) ([2]; acetonitrile:water 90:10 (9:1), hydrochloride): <25 mg/mL
Solubility compared with the other forms (in words) ([2]; comparison between forms): lower compared to the solubilities of Form A
solubility ([2]; dichloromethane, organic solvent or mixture, dichloromethane): < 1 mg/mL
solubility ([2]; diethyl ether, organic solvent or mixture, diethyl ether): < 1 mg/mL
Solubility (approximate) ([2]; ethanol:water 90:10 (9:1), hydrochloride): <22 mg/mL
Solubility (approximate) ([2]; ethanol, hydrochloride): 2 mg/mL
solubility ([2]; ethyl acetate, organic solvent or mixture, ethyl acetate): < 1 mg/mL
solubility ([2]; hexafluoro isopropanol, organic solvent or mixture, hexafluoro isopropanol): 1 mg/mL
solubility ([2]; hexane, organic solvent or mixture, hexane): < 1 mg/mL
Solubility (approximate) ([2]; iso-propanol, hydrochloride): <1 mg/mL
Solubility (approximate) ([2]; methanol, hydrochloride): 21 mg/mL
Solubility (approximate) ([2]; methyl ethyl ketone, hydrochloride): <1 mg/mL
solubility ([2]; n-propanol, organic solvent or mixture, n-propanol): < 1 mg/mL
Solubility by kind of solvent (in words) ([2]; organic solvents and aqueous mixtures, hydrochloride): poorly soluble in most organic solvents, except in methanol; also recorded: slightly soluble in ethanol, hexafluoroisopropanol, 2,2,2-trifluoroethanol, and some aqueous mixtures
Solubility (approximate) ([2]; tetrahydrofuran (THF), hydrochloride): <1 mg/mL
solubility ([2]; toluene, organic solvent or mixture, toluene): < 1 mg/mL
solubility ([2]; water): 23 mg/mL
Relative thermodynamic stability of the forms [3]: more thermodynamically stable than Form A
Stability under high relative humidities [4]: remain stable
